Laboratory results: patent publication US9206209B2, “Nucleotide analogue, method of synthesis of nucleotide analogue, use of nucleotide analogue, antiviral pro-nucleotide, pharmaceutical composition” (priority 2010, dated 2015)
Where two headings read alike, the source gives them in different places.

Tests used:
HIV [1] = assay: Anti-HIV activity (inhibition of HIV replication, viral protein p24) in CEM-T4 cells; format: cell-based; conditions: for EC90: 90% inhibition of HIV replication; for SI50: selectivity index, CC50 vs EC50, CEM-T4 cells
Description: (§1) Cytotoxicity and anti-HIV activity of the compounds (XVIa-c) described above were examined in CEM-T4 cells according procedures described below.
Anti HIV activity (EC50 and EC90)—parameter EC50 is defined as concentration of compounds in which replication of HIV is inhibited by 50% and parameter EC90 is defined as concentration of compounds in which replication of HIV is inhibited by 90%. To determine these parameters CEM-T4 cells were preincubated 24 hours in standard conditions (37° C., 5% CO2) in standard medium [RPMI, FCS 10% (v/v)] enriched with tested compounds in concentrations in range 0.001-20 μM. Incubations were performed with 96 flat bottom wells culture plates. In each well 20000 cells were suspended in solution of tested compound (200 μL). For each concentration four cultures were done. As a reference, media containing AZT in concentration 1.25 μM, 2.5 μM, 5.0 μM, 10.0 μM, 20 μM were used. As a positive control of maximal replication of HIV, culture in neat standard medium [RPMI/FCS 10% (v/v)] was used. After 24 hours of incubation in medium enriched with tested compound and AZT, cells were inoculated with known amount of HIV and cultivation was continued 8 days and after this the amount of viral protein p24 (marker of HIV replication) was measured. Inhibition of HIV replication is presented as percentage of p24 content in culture performed with media containing tested compound and assuming that amount of p24 measured in control correspond 100% of HIV replication. The examinations of each tested substance for each concentration were run in triplicate.

CEM-T4 cells [2] = assay: Cytotoxicity determination (MTT test, 7 days); format: cell-based
Description: as §1
(§2) Cytotoxicity determination—CC50 and CC90 parameters—For determination of compounds (XVIa-c) cytotoxicity CEM-T4 and CEM-A were cultured in standard conditions (37° C., 5% CO2) on 96 wells culture plates in media RPMI/FCS 10% (v/v). Experiments were carried out in media contained tested compounds in concentrations of appropriate range. Cultures in neat medium (RPMI, 10% FCS) were used as a control ones. Viability of cells were determined after 7 days using MTT test in which to each well of culture plate were added 10 μL of MTT solution (5 mg/mL) and cultures were incubated 3 hours in temperature 37° C. After centrifugation supernatant was removed and DMSO was added to lyse the cells and to dissolve crystals of farmazan. Measurement of colour intensity was done using a plate reader (λ560 nm).
(§3) Cytotoxicity calculation—reference absorbancy (K) was an average of measurements for five well of culture plate and accounts for 100% CEM-T4 or CEM-A cells viability. In each case absorbancy for cells cultured in media enriched with tested compounds was calculated as average of at least three measurements.
(§4) Cells viability (P) were calculated according to formula:
(§5) [formula] in which P—viability of cells, K—reference absorbancy, A—absorbancy for cells cultured in media enriched with tested compounds, T—absorbancy for neat medium (RPMI/10% FBS). On the basis of calculations graph showing dependence of viability and concentrations of tested compounds values of CC50 and CC90 were determined

[3] = Cytotoxicity determination (MTT test, 7 days); format: cell-based; conditions: human, CEM-T4 cells
Description: as §1, §2, §3, §4, §5

CEM-T4 cells [4] = conditions: cited from earlier work
HIV [5] = tested on: HIV; set-up: SI50: unit not given beside the values; conditions: *Estimated in cells CEM-T4; Baba M. et al. 1987; cited from earlier work
HIV [6] = tested on: HIV; set-up: SI50: unit not given beside the values; conditions: **Imbach J-L. et al. 1994; cited from earlier work

What does the source list for `Cc1cn([C@H]2C[C@H](N=[N+]=[N-])[C@@H](COP(=O)(O)Nc3ccncc3)O2)c(=O)[nH]c1=O` [(XVITc)]?
EC90 (HIV [1]; CEM-T4 cells, p24 after 8 days): 0.006 µM; SI50 (HIV [1]): >>19000; CC50 (CEM-T4 cells [2]): > 190 µM; CC90 (CEM-T4 cells [2]): > 190 µM

For `Cc1cn([C@H]2C[C@H](N=[N+]=[N-])[C@@H](CO)O2)c(=O)[nH]c1=O` [AZT, 3′-azido-3′-deoxythymidine], which EC50 (HIV [1]; Human immunodeficiency virus 1, 192 h, CEM-T4 cells, 50% inhibition of HIV replication, p24 after 8 days) is on record?
The EC50 was 0.0011 µM.

And the EC90 (HIV [1]; Human immunodeficiency virus 1, 192 h, CEM-T4 cells, p24 after 8 days)?
Its EC90 is 0.016 µM.

What about the SI50 (HIV [1]) of the same compound?
Its SI50 is 6000.

What about the CC50 at 7 days [3] of the same compound?
The CC50 at 7 days was 60 µM.

What does the source list for `Nc1ncnc2c1ncn2[C@H]1CC[C@@H](CO)O1` [ddA, 2′,3′-dideoxyadenosine]?
CC50 (CEM-T4 cells [4]; *Estimated in cells CEM-T4, Baba M. et al. 1987): > 250 µM; EC50 (HIV [5]): 2.5 µM; SI50 (HIV [5]): >>100*

For `OC[C@@H]1CC[C@H](n2cnc3c(O)ncnc32)O1` [ddI, 2′,3′-dideoxyinosine], which EC50 (HIV [6]) is on record?
The EC50 was 1.1 µM.

And the SI50 (HIV [6])?
The SI50 was >>91**.

For `O=c1ccn([C@H]2CC[C@@H](CO)O2)c(=O)[nH]1` [ddU, 2′,3′-dideoxyuridine], which CC50 (CEM-T4 cells [4]) is on record?
The CC50 was greater than 250 µM.

And the EC50 (HIV [5])?
Its EC50 is 48 µM.

What about the SI50 (HIV [5]) of the same compound?
The SI50 was >5.2*.
